One substance from patent US20040043498A1, “Reagent for determining singlet oxygen” (priority 2003, published 2004) can be followed below.

A short description of the series: Light stability of DMAX-EP (photobleaching under continuous excitation light). The class given is physicochemical. Conditions: 0.1 M phosphate buffer pH 7.4, 0.1% DMSO, 37° C. The procedure:
5.0 μM aqueous solutions of DMAX-EP (endoperoxide of Compound 11 in the above scheme) and DPAX-1-EP (endoperoxide of Compound 13 described in International Patent Publication WO99/51586, Example 1) [0.1 M phosphate buffer (pH 7.4) containing 0.1% DMSO as a cosolvent] were each placed in a fluorescent cell and exposed to an excitation light of 491 nm at 37° C. with stirring, and fluorescence was measured at 620 nm by using a fluorometer while the solution was continuously exposed to the excitation light.

Consider DMAX-EP, for which, where the note is “5.0 μM aqueous solution, excitation 491 nm, fluorescence at 620 nm”, the “Photobleaching relative to DPAX-1-EP” value is on record as 5.4 times slower. The Light stability result (5.0 μM, continuous 491 nm excitation) is reported as “excellent light stability”.
